According to the METLIN SMRT retention time set (Domingo-Almenara et al. 2019):

Test: gradient 5% acetonitrile 3 min, to 50% in 2 min, to 85% in 15 min, held 3 min, 100 µL/min
Conditions: column: Zorbax Extend-C18 2.1 x 50 mm; eluents: water / acetonitrile, 0.1% formic acid
Procedure, shortened: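 Over 3 months, pure standards in mixtures of ~100 molecules were run by HPLC coupled to a quadrupole time-of-flight mass spectrometer in positive and negative ionization mode. The column was a Zorbax Extend-C18 (2.1 × 50 mm, 1.8 μm) at 100 μL/min, eluted with water and acetonitrile each holding 0.1% formic acid, with 40 μL dead and 900 μL dwell volumes. Retention time was determined from adduct peaks chosen by software and checked manually.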

Row | SMILES | RP-LC retention time
1 | COc1ccc(-c2cn3ccn(-c4ccc(Cl)cc4)c(=O)c3n2)cc1OC | 887 s
2 | CCOc1ccc(Cl)cc1S(=O)(=O)N1CCC(C(=O)NCCCO)CC1 | 688 s
3 | CCCN1CCN(C(=O)c2ccc(CS(=O)c3ccccc3Cl)o2)CC1 (centres undefined) | 593 s
4 | Cc1ccc(N2C(=O)Cn3cccc3C2C(=O)NC2CCCCC2C)cc1 (centres undefined) | 947 s
5 | O=C(c1cccc(Cl)c1)N1CCC2(CC1)OCC(C(=O)N1CCCC1)N2C(=O)c1cccc(F)c1 (centres undefined) | 765 s
6 | COc1ccc(C(=O)Nc2cc(-c3cccnc3)no2)c(OC)c1 | 802 s
7 | CO[C@H]1C(=O)N(C2CCN(S(=O)(=O)c3c(C)noc3C)CC2)[C@H]1c1ccncc1 | 625 s
8 | COCc1nnc2n1CCC(NC(=O)C1CC=CC1)CC2 (centres undefined) | 587 s
9 | O=C(N[C@H]1C[C@@H]2C[C@H]1N(S(=O)(=O)c1cc(F)cc(F)c1)C2)c1cccs1 | 720 s
10 | COc1ccc(NC(=O)c2ccc3c(c2)OCCO3)c([N+](=O)[O-])c1 | 874 s
11 | COC(=O)CNC(=O)NCCc1noc(C2CC2)n1 | 598 s
12 | Cc1ccc(-n2cc(C(=O)N3CCSCC3)nn2)cc1C | 852 s
13 | CCN1C(=O)C(CC(=O)NC2CCCCCC2)Sc2ncccc21 (centres undefined) | 804 s
14 | Cc1cccc(OCc2ccc(-c3nc(C#N)c(NCCN(C)C)o3)o2)c1 | 708 s
15 | CCN1CCN(c2nc(F)c(F)c(S(=O)(=O)CCNc3cccc(C(F)(F)F)c3)c2F)CC1 | 731 s
16 | CCCC(NC(=O)c1ccc(OC)c(OC)c1)C(=O)Nc1nc2ccccc2[nH]1 (centres undefined) | 650 s
17 | COc1cccc(CNC(=O)C2CCc3nc(N4CCCCC4)ncc3C2)c1 (centres undefined) | 665 s
18 | CC1CCCN(C(=O)C2CCN(CCc3c[nH]c4ncccc34)CC2)C1 (centres undefined) | 586 s
19 | O=C(Nc1ccccc1)Oc1ccc[nH]c1=O | 650 s
20 | O=C(C1CCN(c2ncnc3c2nc2n3CCCCC2)CC1)N1CCN(c2ccccn2)CC1 | 592 s
21 | O=C(NCCN1CCN(c2ccc(Cl)cc2)CC1)C(=O)Nc1cc(F)ccc1F | 613 s
22 | CCOC(=O)c1c(C)[nH]c(C(=O)N2CCCC(C(=O)NCCN3CCN(CC)CC3)C2)c1C (centres undefined) | 567 s
23 | CCOC(=O)c1sc(NC(=O)c2cn(CC)c3nc(C)ccc3c2=O)nc1C | 1040 s
24 | CC(NC(=O)c1cn(C)c2ncccc12)c1cccnc1 (centres undefined) | 555 s
25 | O=C(NC1CC1)C1CCCN(c2nc3ncn(CC(=O)N4CCc5ccccc5C4)c(=O)c3s2)C1 (centres undefined) | 689 s
26 | CCC(=O)N1CCCCCCNC(=O)[C@@H]2CCC[C@@H]21 | 657 s
27 | COCCCNC(=O)C1CCN(c2cncnc2N(C)C)CC1 | 568 s

Row | SMILES | RP-LC retention time
28 | CC(=O)N1CCCC1c1nc(C2CN(C(=O)c3ccsc3)C2)no1 (centres undefined) | 629 s
29 | CC(C)c1noc(-c2ccc(-n3cnc(C(=O)NC4CCCCC4)c3)nc2)n1 | 741 s
30 | COC(=O)Cn1cnc2c(-c3ccc(Br)cc3)csc2c1=O | 943 s
31 | COC(=O)c1c(C)c(C(=O)C(C)N(C(=O)c2ccc(F)cc2)C(C)C)c(C)n1C (centres undefined) | 922 s
32 | CCc1nc2c(N)cccn2n1 | 597 s
33 | CCOc1ccc(C(=O)N2CCC3(CC2)NC(=O)c2cc(Cl)ccc2N3C)cc1 | 853 s
34 | O=C(c1ccc(-c2cccs2)nc1)N1CCN(c2ccc(F)cc2)CC1 | 950 s
35 | CCOC(=O)c1ccc(N2C=C(C(=O)OC)S(=O)(=O)c3ccccc32)cc1 | 893 s
36 | O=C(Nc1ccc2c(c1)OCCO2)C1CCCN(S(=O)(=O)c2c[nH]c(C(=O)N3CCCC3)c2)C1 (centres undefined) | 756 s
37 | CS(=O)(=O)c1ccc([C@@H](O)[C@@H](CF)NC(=O)C(Cl)Cl)cc1 | 723 s
38 | NC(=O)c1nc(-c2ccccc2F)n2c1CCCCC2 | 722 s
39 | Cc1ccc(NC(=O)C2CCN(S(=O)(=O)c3cc(C(=O)N4CCCC4)cs3)CC2)cc1Cl | 916 s
40 | CCC(=O)N1CCc2cc(N3CC(C(=O)NCc4cccs4)CC3=O)ccc21 (centres undefined) | 695 s
41 | CCN(CC)C(=O)c1ccc(-c2nc3cc(NS(=O)(=O)c4cc(F)ccc4C)ccc3n2C)cc1 | 723 s
42 | O=C(c1ccc2c(c1)OCO2)N(CCc1cscn1)Cc1cccnc1 | 602 s
43 | Nc1ccc(Nc2ccccc2)c(S(=O)(=O)O)c1 | 639 s
44 | Cc1cc(C)n(CC(=O)N2CCCCC2c2nc(C3CC3)no2)n1 (centres undefined) | 741 s
45 | CC(C)c1cc(C(=O)Nc2ccc(C#N)cc2)nc2ccnn12 | 1030 s
46 | Cn1cc(S(=O)(=O)N2CCC(C(=O)NC3CCCCC3)CC2)cc1C(=O)N1CCCC1 | 736 s
47 | Cc1ccc(F)c(NC(=O)Nc2ccc(-c3cccc4[nH]nc(N)c34)cc2)c1 | 845 s
48 | Cn1cc(C(=O)NCc2ccc(F)c(Cl)c2)c(S(=O)(=O)N2CCCCC2)n1 | 876 s
49 | Cc1cc(C)c2c(N(C)C)nc(C(=O)Nc3ccc(N4CCOCC4)cc3)nc2n1 | 595 s
50 | O=S(=O)(c1ccc2c(c1)CCCN2)N1CCC[C@H]2CCCC[C@@H]21 | 1190 s
51 | CCC1CN(C(=O)N2CCC(C(=O)NCCN3CCN(C)CC3)CC2)c2cc(C)ccc2O1 (centres undefined) | 619 s
52 | CCOc1ccc(S(=O)(=O)N2CCCC(C(=O)NCCOC)C2)cc1C (centres undefined) | 769 s
53 | Cc1ccc(Cl)c(NS(=O)(=O)c2cc(-c3[nH]ncc3C(=O)N3CCCC3)oc2C)c1 | 739 s

More lines, now with the values ahead:

Row | RP-LC retention time | SMILES
54 | 711 s | C[C@H]1CN(C(=O)c2c[nH]c3ccccc23)C[C@@H]1c1nc(-c2cccnc2)no1
55 | 758 s | O=C(Cn1nc(C(=O)N2CCCC2)c2ccccc21)NC1CCCC1
56 | 735 s | c1ccc(-c2ccc(CNCCc3c[nH]c4ccccc34)o2)cc1
57 | 751 s | Cc1ccc(NC(=O)N2CCC(n3cnc4ccccc4c3=O)CC2)c(C)c1
58 | 763 s | Cc1ccccc1CNS(=O)(=O)c1cn(CC(C)C)c2ncccc12
59 | 978 s | O=c1c2ccccc2n(Cc2nc(-c3ccccc3)no2)c(=O)n1CC1CCCO1 (centres undefined)
60 | 632 s | O=C(NCCn1cnc2ccccc2c1=O)C1CC(=O)N(c2n[nH]c3ccccc23)C1 (centres undefined)
61 | 966 s | Cc1ccc(C(O)Cn2ccn3nc(-c4ccc(F)cc4)cc3c2=O)cc1 (centres undefined)
62 | 717 s | O=C(NCC1CCOCC1)c1nccc2ccccc12
63 | 909 s | O=c1ccc(-c2nc(-c3ccncc3)no2)nn1Cc1ccc(Cl)cc1
64 | 770 s | Cn1nc(-c2nc(-c3ccccc3F)no2)c2c1CCN(C(=O)C1CCCO1)C2 (centres undefined)
65 | 867 s | Cc1nc(-c2ccc(N3CCN(C(=O)c4nccc5ccccc45)CC3)nc2)sc1C
66 | 930 s | O=C(C1=CN(c2ccccc2)c2cc(Cl)ccc2S1(=O)=O)N1CCCCC1
67 | 931 s | O=C(CSc1cc(N2CCN(c3ccccc3F)CC2)ncn1)NCc1cccs1
68 | 572 s | O=C(NCCn1ncccc1=O)c1ccc(S(=O)(=O)N2CCOCC2)cc1
69 | 851 s | CCOc1ccccc1NC(=O)N1CCN(c2ccc(=O)n(-c3ccccc3)n2)CC1
70 | 1010 s | Cc1nc(-c2csc(S(=O)(=O)N3CCC(C(=O)Nc4ccc(F)cc4Cl)CC3)c2)no1
71 | 765 s | CSc1ccc(CCNC(=O)c2ccc3c(c2)nc(C)c(=O)n3C)cc1

Row | RP-LC retention time | SMILES
72 | 986 s | Cc1ccc(NS(=O)(=O)c2ccc3c(c2)C(=O)N(C)c2ncccc2O3)c(C)c1
73 | 773 s | CN(C)CCN(C(=O)CCc1ccccc1)c1nc2ccc(F)cc2s1
74 | 720 s | COc1ccccc1C(=O)Nc1nnc(C2CC(=O)N(c3ccccc3)C2)o1 (centres undefined)
75 | 849 s | N#Cc1cccc(CN2C[C@@H]3C(=O)N(CCc4ccccc4)C(=O)[C@@H]3C2)c1
76 | 614 s | O=C(CSc1nnc2sc3ccccc3n12)N1CCOCC1
77 | 817 s | Cn1ncc2c3ccccc3n(CCCC(=O)NCc3cccs3)c2c1=O
78 | 949 s | Cc1ccc(C(=O)N2CCC(c3nc(-c4ccccc4)no3)C2)s1 (centres undefined)
79 | 896 s | CSc1cccc(NC(=O)Cn2c(=O)n(-c3ccc(F)cc3)c(=O)c3c2cc(C)n3C)c1
80 | 845 s | CCn1cc(S(=O)(=O)NCc2cccc(C)c2)c2cccnc21
81 | 1240 s | Cc1ccc(-c2noc(Cn3c(=O)n(CC(C)C)c(=O)c4ccccc43)n2)cc1
82 | 824 s | O=C(c1ccc(Cl)cc1)N1CCC2(CC1)N=C(c1ccccc1)NO2
83 | 895 s | O=C(NCc1ccc2c(c1)OCO2)C1CCCN(c2nccn3nc(-c4ccccc4Cl)cc23)C1 (centres undefined)
84 | 600 s | CN1CCN(C(=O)c2c3c(nc4ccccc24)C(=O)N(C2CCCCC2)C3)CC1
85 | 837 s | COCCNC(=O)c1c(C)oc2ccn(Cc3ccc(F)cc3)c(=O)c12
86 | 779 s | CCCC(=O)Nc1nnc(SCc2nnc(-c3ccccc3)o2)s1
87 | 698 s | CCN1CCCn2cc(S(=O)(=O)NCc3ccc(OC)cc3)cc2C1=O
88 | 759 s | Cc1cc(C)cc(NC(=O)Cn2c(C(C)C)nc3c(c2=O)CCN(Cc2ccccc2)C3)c1
89 | 620 s | CCc1ccc2c(c1)cc(S(=O)(=O)c1ccccc1)c(=O)n2CC(=O)N1CCCCC1
